Converted amounts (≈) assume the structure as drawn. Like-named read-outs stand apart in the source and are kept apart here.
Legend:
mouse L cells [1] = system: mouse L cells
D98 cells = experiment: Cell Culture Cytotoxicity Test, D98 cells; format: cell-based; settings: Homo sapiens; 50 % of control; 70-76 hours of incubation; read-out: Concentration giving 50 % of Control, D-98 Cells
Protocol: (§1) B. Cell Culture Cytotoxicity Test Data
(§2) The two routine indicator cell lines used are (1.) D98, a twice-cloned derivative of Detroit 98s from American Type Culture Collection (ATCC) strain CCL 18.1, from human sternal bone marrow and (2.) L, a cloned derivative from NCTC 929 (ATCC CCL1,) a C3 H/An from mouse connective tissue. Inoculation densities for L and D98 cells are 1.0 and 1.5×10^5 cells, per cm^2, respectively. Control cells are grown in Eagle's MEM (Earle's salts, 10% horse serum, 100 units/ml potassium penicillin G and 100 μg/ml streptomycin) and should show at least two doublings during the test period. Test plates are seeded with similar quantities of cells and are grown in the same medium with test compounds added. Total "cell counts" are made with an electronic cell counter after 70-76 hours of incubation with one medium change at 20-26 hours. Dose response curves are prepared by plotting percent of control vs. concentration of compound.
(§3) The compounds of the invention included in this test and the results are as follows.

L cells = experiment: Cell Culture Cytotoxicity Test, L cells; format: cell-based; settings: Mus musculus; 50 % of control; 70-76 hours of incubation; read-out: Concentration giving 50 % of Control, L-Cells
Protocol: as §1, §2, §3

Spiroplasma citri = experiment: Activity Against Spiroplasma citri, Sensitivity Test; format: cell-based; settings: for MIC: Spiroplasma citri, 48 h, 32° C., no color change or two day delay in color change; for activity against the mycoplasma, Spiroplasma citri: in words
Protocol: D. Data for Activity Against Spiroplasma citri, Sensitivity Test
Frozen broth cultures are diluted to a predetermined titre of 100 color changing units for the test. Organisms are grown in Difco PPLO broth base with added serum, glucose, phenol red, ampicillin, thallium acetate and yeast extract. Incubation is at 32° C. Incubation with varying levels of the test compound in the above medium are performed in well plates and an amount of Spiroplasma citri cells is added that will produce a color change by a fixed time of growth. The lowest concentration of compound that fails to produce a color change or gives a two day delay in color change indicates minimum inhibitory concentration.
The compounds of the invention included in this test and the results are as follows: […]

yellow fever virus = settings: in words
mouse L cells [2] = experiment: Reversal of Cytotoxic Activity on mouse L cells
[3] = system: lymphocytic leukemia P388/0; experiment: Lymphocytic Leukemia P388/0 Test (survival, mice); format: in vivo, CD2-F1 mice
Description: A. Anti-neoplastic Activity Data for Lymohocytic Leukemia P388/0 Test
The tests employed for the evaluation of anti-neoplastic activity of the compounds of the present invention are essentially those used in the Tumor Panel of the Developmental Therapeutics Program, Division of Cancer Treatment, National Cancer Institute, A. Goldin, et al., Methods in Cancer Research, Vol. XVI, p. 165, Academic Press (1979). Some modifications, in dose level and schedule have been made to increase the testing efficiency.
CD2-F1 -mice, of the same sex, weighing within a 3 g range surrounding 20 g, are used for this test. Control and test animals are injected intraperitoneally with a suspension of […] viable P388/0 tumor cells on day 0. In each test, several dose levels which bracket the LD20 of the compound are evaluated; each dose level group contains six animals. The test compound is prepared either in physiologic saline containing 0.05% Tween 80 or distilled water containing 5% dextrose and is administered intraperitoneally on the indicated schedule relative to tumor implant. Doses are on a mg/kg basis according to individual animals' body weights. The day of death for each animal is recorded, the median identified for each group and the percent increase in life span (% ILS) is calculated from the ratio of survival time of treatment to control groups. The criterion for activity is % ILS greater than or equal to 20%.
The compound of the invention included in this test was the compound of Example 1, namely N-[4-[3-(2,4-diamino-1,6-dihydro-6-oxo-5-pyrimidinyl)propylamino]benzoyl]- L-glutamic acid and the results are as follows.

Lactobacillus casei = experiment: activity against Lactobacillus casei; format: cell-based; settings: in words
Streptococcus faecium = experiment: activity against Streptococcus faecium; format: cell-based; settings: in words
[4] = colour change on extended exposure to light; format: physicochemical; settings: white powder

## Nc1nc2c(c(=O)[nH]1)N(C=O)C(CNc1ccc(C(=O)N[C@@H](CCC(=O)O)C(=O)O)cc1)CN2 (stereo partly shown) [calcium leucovorin]
Mouse L cells [1]
  reversal of the cytotoxicity of the compound of Example 1: able to reverse the cytotoxicity
  reversal of the cytotoxicity of the compound of Example 3: able to reverse the cytotoxicity

## CN(CCCc1c(N)nc(N)[nH]c1=O)c1ccc(C(=O)N[C@@H](CCC(=O)O)C(=O)O)cc1 [Example 2, N-[4-[3-(2,4-diamino-1,6-dihydro-6-dihydro-6-oxo-5-pyrimidinyl)-N-methylpropylamino]benzoyl]-L-glutamic acid]
D98 cells
  IC50: 3000 nM
L cells
  IC50: 400 nM
Spiroplasma citri
  MIC: 0.1 µM (≈ 0.0446 µg/mL)
  activity against the mycoplasma, Spiroplasma citri: activity

## Nc1nc(N)c(CCCN(C=O)c2ccc(C(=O)N[C@@H](CCC(=O)O)C(=O)O)cc2)c(=O)[nH]1 [Example 3, N-[4-[3-(2,4-Diamino-1,6-dihydro-6-oxo-5-pyrimidinyl)-N-formylpropylamino]benzoyl]-L-glutamic acid]
D98 cells
  IC50: 210 nM
L cells
  IC50: 18 nM
Spiroplasma citri
  MIC: 0.1 µM (≈ 0.046 µg/mL)
  activity against the mycoplasma, Spiroplasma citri: activity
Yellow fever virus
  activity against yellow fever virus: some activity
Mouse L cells [2]; Mus musculus, read-out: % of Control, compound alone, 4 × 10^-8 M
  activity at 0.04 µM: 37%

## Nc1nc(N)c(CCCNc2ccc(C(=O)N[C@@H](CCC(=O)O)C(=O)O)cc2)c(=O)[nH]1 [Example 1, N-[4-[3-(2,4-diamino-1,6-dihydro-6-oxo-5-pyrimidinyl)propylamino]benzoyl]-L-glutamic acid]
[3]; 2.5 mg/kg i.p., twice a day, on days 1, 2 and 3
  % Increased Life Span: +20%
[3]; 5 mg/kg i.p., every 4 hours for 3 doses on days 1-4
  % Increased Life Span: +22%
[3]; 5 mg/kg i.p., every hour for 8 doses on days 1 and 3
  % Increased Life Span: +60%
[3]; 5 mg/kg i.p., twice a day, on days 1, 2, and 3
  % Increased Life Span: +35%
[3]; 7.5 mg/kg i.p., twice a day, on days 1, 2 and 3
  % Increased Life Span: +40%
[3]; 10 mg/kg i.p., every 4 hours for 3 doses on days 1-4
  % Increased Life Span: +80%
[3]; 20 mg/kg i.p., every hour for 8 doses on days 1 and 3
  % Increased Life Span: +60%
[3]; 182 mg/kg i.p., day 1, 5, 9
  % Increased Life Span: +20%
D98 cells
  IC50: 110 nM
L cells
  IC50: 88 nM
Spiroplasma citri
  MIC: 0.01 µM (≈ 0.00432 µg/mL)
  activity against the mycoplasma, Spiroplasma citri: activity
Lactobacillus casei
  activity against Lactobacillus casei: activity
Streptococcus faecium
  activity against Streptococcus faecium: activity
Yellow fever virus
  activity against yellow fever virus: some activity
Mouse L cells [2]; Mus musculus, read-out: % of Control, compound alone, 2 × 10^-7 M (experiment with Ca leucovorin)
  activity at 0.2 µM: 36%
Mouse L cells [2]; Mus musculus, read-out: % of Control, compound alone, 2 × 10^-7 M (experiment with hypoxanthine)
  activity at 0.2 µM: 40%

## Nc1nc(N)c(CCNc2ccc(C(=O)N[C@@H](CCC(=O)O)C(=O)O)cc2)c(=O)[nH]1 [Example 4, N-[4-[2-(2,4-diamino-1,6-dihydro-6-oxo-5-pyrimidinyl)ethylamino]benzoyl]-L-glutamic acid]
D98 cells
  IC50: 700 nM
L cells
  IC50: 400 nM

## CN(CCc1c(N)nc(N)[nH]c1=O)c1ccc(C(=O)N[C@@H](CCC(=O)O)C(=O)O)cc1 [Example 5, N-[4-[2-(2,4-diamino-1,6-dihydro-6-oxo-5-pyrimidinyl)ethyl-N-methylamino]benzoyl]-L-glutamic acid]
D98 cells
  IC50: 7000 nM
L cells
  IC50: 750 nM
[4]
  colour change upon extended exposure to light: became tan upon extended exposure to light

## O=c1[nH]cnc2nc[nH]c12 [hypoxanthine]
Mouse L cells [1]
  reversal of the cytotoxicity of the compound of Example 1: able to reverse the cytotoxicity
  reversal of the cytotoxicity of the compound of Example 3: able to reverse the cytotoxicity

## NC(=O)c1ncn([C@@H]2O[C@H](COP(=O)(O)O)[C@@H](O)[C@H]2O)c1N [AICAR, 5-aminoimidazole-4-carboxamide ribonucleotide, reference compound]
Mouse L cells [2]; rescue agent against Example 3
  reversal of the cytotoxicity of the compound of Example 3: able to reverse the cytotoxicity
